The results in this text go back to PubChem BioAssay (NCI).

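Method: 48-hour compound exposure of cells in 96-well plates, five concentrations, linear interpolation of endpoints. TGI: concentration producing complete growth inhibition.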 Where only a bound is given, the exact number is not on record here.

Holding throughout (assay): inhibition of tumour cell growth, NCI panel, 48 h
Assay [1] deals with ACHN renal.
The test system of assay [2] is CAKI-1 renal.
Assay [3] deals with EKVX NSCLC.
For assay [4], the system named is HCT-15 colon.
The test system of assay [5] is HOP-92 NSCLC.
The test system of assay [6] is OVCAR-5 ovarian.
The subject of assay [7] is OVCAR-8 ovarian.
Assay [8] deals with RXF 393 renal.
For assay [9], the system named is SF-539 CNS.
Assay [10] deals with SK-MEL-2 melanoma.
Assay [11] relates to SK-OV-3 ovarian.
Assay [12] concerns TK-10 renal.
In assay [13] the test system is UO-31 renal.
Assay [14] relates to CCRF-CEM leukemia.
Assay [15] has as its system K-562 leukemia.
Assay [16] deals with NCI/ADR-RES ovarian.
The test system of assay [17] is OVCAR-3 ovarian.
Assay [18] concerns LOX IMVI melanoma.

For `COC(=O)[C@@]12OC[C@]34C([C@@H](O)C1O)[C@@]1(C)CC(=O)C(O)=C(C)C1C[C@H]3OC(=O)[C@H](OC(=O)CC(C)C(F)(F)F)[C@H]42` (some centres undefined), the TGI in assay [1] is 0.301 µM; in assay [2], 1.07 µM; in assay [3] it was 0.999 µM; in [4], 1.77 µM; in [5] it was 0.131 µM; in [6], 1.18 µM. Also, the TGI turned out to be 0.491 µM in [7]; 0.471 µM in assay [8]; 0.067 µM in assay [9]; 0.362 µM in assay [10]; 0.531 µM in [11]; 1.29 µM in assay [12]. In addition, the TGI in [13] was 1.06 µM.

Regarding `CN=C(N)N/N=C(\C)c1ccc2oc3ccc(/C(C)=N/NC(N)=NC)cc3c2c1`, the TGI is more than 48.8 µM in [1]; 83 µM in assay [2]; 9.06 µM in assay [14]; more than 100 µM in [3]; more than 100 µM in [4]; 15 µM in assay [15]. Besides, the TGI in assay [16] is more than 100 µM; in assay [17], more than 100 µM; in [6], more than 87 µM; in assay [7], more than 100 µM; in assay [8] it was more than 50.7 µM; in assay [10], 5.24 µM. Also, the values for the TGI in [11], in assay [12] and in assay [13] were 74 µM, more than 100 µM and more than 100 µM, respectively.

Regarding `[O-]c1on[n+]2c1c(Nc1ccc(Cl)cc1)nc1ccccc12`, the TGI in assay [1], in assay [14], in assay [3], in [5], in [15] and in assay [18] was more than 100 µM each time. Moreover, the TGI in assay [17], in [6], in assay [7], in assay [8], in [9] and in assay [11] was more than 100 µM throughout. Besides, the TGI in assay [12] and in assay [13] was more than 100 µM throughout.

As for `CCOC(=O)C(NC(=O)NC(C(=O)OCC)C(=O)OCC)C(=O)OCC`, the TGI in assay [1], in [2], in assay [3], in assay [4], in assay [5] and in assay [15] was more than 100 µM each time. Besides, the TGI in [16], in [17], in [6], in assay [7], in [8] and in [9] was more than 100 µM each time. Moreover, the TGI in [10], in assay [11], in assay [12] and in assay [13] was more than 100 µM each time.

For `CC(Oc1ccc(OCC2CCCCC2)cc1)C(=O)N(CCO)CCO` (centres undefined), the TGI in assay [1], in [14], in assay [4], in assay [15], in [18] and in assay [17] was more than 100 µM in each case. In addition, the TGI in [7] was more than 100 µM; in assay [8] it was more than 100 µM; in [9], 39.8 µM; in assay [10], more than 100 µM; in assay [11] it was more than 100 µM; in assay [12] it was more than 100 µM. In assay [13], this compound yielded a TGI of more than 100 µM.

`NC1CNC(=O)c2cscc21` (centres undefined): the TGI in [1], in assay [2], in assay [14], in [3], in [4] and in assay [5] was more than 100 µM throughout. Moreover, the TGI in assay [15], in assay [18], in [16], in [17], in assay [6] and in assay [8] was more than 100 µM in each case. For the same compound, the TGI in [13] is more than 100 µM.

Take `CC(CCc1ccc2c(c1)c(=N)c1ccc(N)cc1n2O)CC(C)(C)C` (centres undefined): the TGI came to 3.14 µM in assay [1]; 3.19 µM in assay [2]; 2.69 µM in assay [14]; 3.04 µM in assay [3]; 17.9 µM in assay [4]; 3.13 µM in assay [15]. For the same compound, the TGI in [18] came out at 3.07 µM; in assay [17], 3.19 µM; in assay [6] it was 2.93 µM; in assay [8], 4.43 µM; in [10], 3.31 µM; in [12], 3.29 µM. In [13], this compound gave a TGI of 34 µM.

As to `Cn1c(=O)nc2n(-c3ccc(Cl)cc3Cl)c3ccccc3nc-2c1=O`, the TGI in assay [2] stood at 13.2 µM; in assay [3] it was 16.9 µM; in assay [4], 15.4 µM; in [5], 9.24 µM; in assay [15], 22.6 µM; in assay [17], 5.59 µM. The TGI in assay [6] is 49 µM; in [7], 14.1 µM; in [8], 15.4 µM; in assay [9], 19.3 µM; in assay [10], 17.4 µM; in [11], 72.8 µM. Also, the TGI in [12] worked out at 54.2 µM; in assay [13], 26 µM.

Turning to `CC(C)CNC(=O)Cn1c2c(c3ccccc31)CCCC2`, the TGI in [1], in assay [2], in [14], in assay [3], in [4] and in assay [5] was more than 100 µM throughout. Besides, the TGI in assay [15], in assay [18], in assay [16], in [17], in [6] and in [7] was more than 100 µM throughout. The TGI in [9], in [10], in assay [11], in assay [12] and in [13] was more than 100 µM in each case.

As to `COC1CC(n2cnc3c(N)ncnc32)OC1CO` (centres undefined), the TGI in assay [1], in assay [2], in assay [14], in assay [4], in assay [5] and in assay [15] was more than 100 µM in each case. Also, the TGI in assay [17], in assay [6], in [7], in [9], in assay [10] and in [12] was more than 100 µM in each case. In assay [13], this compound came in with a TGI of more than 100 µM.

On to `CC(=O)c1cccc(NCn2nnc3ccccc32)c1`, for which the TGI in assay [1], in assay [14], in assay [3], in assay [4], in [5] and in [15] was more than 100 µM throughout. The TGI in assay [18], in assay [17], in [7], in assay [8], in [9] and in [10] was more than 100 µM in each case. Moreover, the TGI in assay [11], in assay [12] and in assay [13] was more than 100 µM in each case.

Take `O=C(Nc1ccc([N+](=O)[O-])cc1)C(=O)C(C(=O)c1ccccc1F)C1OC(=O)c2ccccc21` (centres undefined): the TGI in [1] is more than 100 µM; in [2] it was more than 100 µM; in assay [14] it was 58.4 µM; in assay [3], more than 100 µM; in assay [4] it was more than 100 µM; in [5], more than 100 µM. Further, the TGI in assay [15] was more than 100 µM; in assay [18], 60.7 µM; in [6] it was more than 100 µM; in assay [7], more than 100 µM; in assay [8], 79.6 µM; in assay [9], 56 µM. For the same compound, the TGI in assay [10] is 71.6 µM; in [11], more than 100 µM; in assay [12], more than 100 µM; in assay [13], more than 100 µM.

With `OC(c1ccccc1)(c1ccccc1)c1cccnc1`, the TGI in [1], in assay [2], in assay [14], in assay [3], in [4] and in assay [15] was more than 100 µM in each case. The TGI in assay [18], in [17], in [6], in assay [7], in assay [9] and in [10] was more than 100 µM in each case. Moreover, the TGI in assay [11], in [12] and in assay [13] was more than 100 µM each time.

For `CC(C)=CCC/C(C)=C/Cc1c(O)ccc2c1[nH]c1cc(O)c(C)cc12`, the TGI in [1], in assay [14], in assay [4], in assay [5], in assay [15] and in [18] was more than 25 µM in each case. Further, the TGI in [17] was 21.2 µM; in assay [6], more than 25 µM; in [7], more than 25 µM; in assay [8] it was more than 25 µM; in assay [9] it was 23.8 µM; in assay [10], more than 25 µM. For the same compound, the TGI in [11], in assay [12] and in assay [13] was more than 25 µM each time.

Consider `Cc1cccc(Nc2cn(CCOc3ccccc3)c(=O)n(CCOc3ccccc3)c2=O)c1`, for which the TGI in assay [1] was more than 100 µM; in assay [2], more than 100 µM; in assay [14], more than 100 µM; in [3], 96.9 µM; in assay [4], more than 100 µM; in [5] it was more than 100 µM. For the same compound, the TGI in [15], in [18], in assay [17], in [6], in assay [8] and in assay [13] was more than 100 µM each time.
